Consider eleven compounds from patent publication US4643999A, “2-substituted imidazo[1,2-c]pyrimidines having anxiolytic properties” (priority 1983, dated 1987).

The structures appear in SMILES notation.

Assay [1] has as its target benzodiazepine receptor. Description: affinity for the benzodiazepine receptor, [3H] flunitrazepam radio receptor binding (Squires and Braestrup, modified). The following applies: inhibition by 50% of specific binding of 0.6 nM [3H] flunitrazepam to rat forebrain membrane preparations. As for the experimental part:
The affinity of the compounds for the benzodiazepine receptor was assessed using the radioligand [^3 H] flunitrazepam and modifications of the original radio receptor binding method of Squires and Braestrup [Nature, Vol. 266 (1977) p. 732]. The values given in Table II are nanomolar concentrations of test drug which inhibited the specific binding of 0.6 nM [^3 H] flunitrazepam to rat forebrain membrane preparations by 50% (IC50 nM).

Assay [2] can be described thus: Geller conflict, screening for anxiolytic activity (conflict method of Geller et al, modified). The assay is classed as in vivo. The following applies: po; read-out: GELLER CONFLICT MED (minimum effective dose at which there was an observed increase in shocks above control). As for the experimental part:
Screening for anxiolytic activity was carried out by modifications of the conflict method of Geller et al [Psychopharmacologia, (1960), Vol. I, p. 482]. The values given in Table II are the minimum effective doses at which there was an observed increase in shocks above control (MED mg/kg po).

`COc1cc2nc(C(=O)c3ccccc3)cn2c(SC)n1` [Example 12, {7-methoxy-5-methylthio-imidazo[1,2-c]pyrimidin-2-yl}phenylmethanone] showed an IC50 in assay [1] of 126 nM. Further, the minimal effective dose in assay [2] came to 5 mg/kg.

In the case of `COc1cc2nc(C(=O)c3ccccc3)cn2c(OC)n1` [Example 10, (5,7-dimethoxy-imidazo[1,2-c]pyrimidin-2-yl) phenylmethanone], the IC50 in assay [1] amounted to 1000 nM. The minimal effective dose in assay [2] is 10 mg/kg. On the same counts, the results for `CCCn1c(OC)cc2nc(C(=O)c3ccccc3)cn2c1=O` [Example 3, 2-benzoyl-7-methoxy-6-propyl-imidazo[1,2-c]pyrimidin-5-one] are 1000 nM and 10 mg/kg. On the same counts, the results for `C=CCn1c(SC)cc2nc(C(=O)c3ccccc3)cn2c1=O` [Example 15, 6-allyl-2-benzoyl-7-methylthio-imidazo[1,2-c]pyrimidin-5-one] are 120 nM and 50 mg/kg. Compound `C=CCn1c(OC)cc2nc(C(=O)c3ccccc3)cn2c1=O` [Example 9, 6-allyl-2-benzoyl-7-methoxy-imidazo[1,2-c]pyrimidin-5-one] yielded an IC50 in assay [1] of 500 nM. In assay [2], the minimal effective dose was 5 mg/kg. On the same counts, the results for `CCc1nc(OC)cc2nc(C(=O)c3ccccc3)cn12` [Example 5, (5-ethyl-7-methoxy-imidazo[1,2-c]pyrimidin-2-yl)phenylmethanone] are 215 nM and 10 mg/kg.

Compound `CCn1c(SC)cc2nc(C(=O)c3ccccc3)cn2c1=O` [Example 14, 2-benzoyl-6-ethyl-7-methylthio-imidazo[1,2-c]pyrimidin-5-one] displayed an IC50 in assay [1] of 140 nM. In addition, the minimal effective dose in assay [2] came to 5 mg/kg.

Turning to `COc1cc2nc(C(=O)c3ccccc3)cn2c(C)n1` [Example 4, (7-methoxy-5-methyl-imidazo[1,2-c]pyrimidin-2-yl)-phenylmethanone], the IC50 in assay [1] was found to be 520 nM. Moreover, the minimal effective dose in assay [2] was 50 mg/kg.

`CCOc1nc(OC)cc2nc(C(=O)c3ccccc3)cn12` [Example 11, (5-ethoxy-7-methoxy-imidazo[1,2-c]pyrimidin-2-yl) phenylmethanone]: the IC50 in assay [1] was found to be 890 nM. As to `CSc1cc2nc(C(=O)c3ccccc3)cn2c(SC)n1` [Example 13, {5,7-bis(methylthio)-imidazo[1,2-c]pyrimidin-2-yl}phenylmethanone], the IC50 in assay [1] turned out to be 18 nM. Further, the minimal effective dose in assay [2] came out at 50 mg/kg. For `CCn1c(OC)cc2nc(C(=O)c3ccccc3)cn2c1=O` [Example 2, 2-benzoyl-6-ethyl-7-methoxyimidazo[1,2-c]pyrimidin-5-one], the IC50 in assay [1] is 2000 nM. The minimal effective dose in assay [2] was determined as 2 mg/kg.
